Experimental data published in patent publication US6843979B2, “4-haloethenylphenyl tropane:serotonin transporter imaging agents” (Emory University, priority 1999, dated 2005).
Values joined by “and” are separate entries in the source; they are usually repeats but may differ in a detail not shown here. Identical values can stand only once.

Legend:
[1] = target: T1, NET (norepinephrine transporter site) (Homo sapiens, UniProt P23975); test: Transporter affinity of N-alkyl ZIENT ligands in transfected cell lines, [3H]nisoxetine; type: binding
T1 construct: expressed in transfected cells
Text: (§1) In order to determine whether any structural modifications of ZIENT, FEINT, and FEBrNT would still yield high selectivity and specificity for SERT similar to the results seen with ZIENT, FEINT, FEBrNT and FEClNT, various substitutions on the tropane nitrogen and the 2-beta carboxyester position were made and tested in in vitro binding studies.
(§2) These studies provide a variety of new compounds which can be used as imaging agents for visualizing the location and density of serotonin transporter by PET or SPECT imaging.

[2] = target: T2, DAT (dopamine transporter site) (Homo sapiens, UniProt Q01959); test: Transporter affinity of N-alkyl ZIENT ligands in transfected cell lines, [125I]TRI-55; type: binding
T2 construct: expressed in transfected cells
Text: as §1, §2

[3] = target: T3, 5-HTT (serotonin transporter site) (Homo sapiens, UniProt P31645); test: Transporter affinity of N-alkyl ZIENT ligands in transfected cell lines, [3H]citalopram; type: binding
T3 construct: expressed in transfected cells
Text: as §1, §2

[4] = target: T4, human SERT (Homo sapiens, UniProt P31645); test: Binding site competition, cells stably transfected with human SERT, [3H]citalopram
T4 construct: expressed in transfected cells

[5] = tested on: SERT; details: cited from earlier work; for IC50: vs [3H]paroxetine
[6] = target: dopamine transporter (DAT) (Rattus norvegicus, UniProt P23977); details: vs [3H]WIN 35428; cited from earlier work
[7] = target: T5, human NET (Homo sapiens, UniProt P23975); test: Binding site competition, cells stably transfected with human NET, [3H]nisoxetine; details: NET Ki, transfected cell lines
T5 construct: expressed in transfected cells

[8] = target: T6, human DAT (Homo sapiens, UniProt Q01959); test: Binding site competition, cells stably transfected with human DAT, [3H]WIN 35,428; details: [3H]WIN 35428, transfected cell lines
T6 construct: expressed in transfected cells

[9] = target: T7, SERT (Rattus norvegicus, UniProt P31652); test: Tissue uptake of [18F]FEINT in rats; type: in vivo, Sprague Dawley rat; details: for Clearance from the hypothalamus: rat
T7 construct: from tissue; host or cells: brain and other tissues of living male Sprague Dawley rats
Method: The in vivo regional brain tissue distribution of [^18F]FEBrNT (Table 2) and [^18F]FEINT Tables 3 and 4) were compared with a preliminary study in rats. […] The hypothalamus to cerebellum ratios for [^18F]FEBrNT were 5.7 at 60 min post injection in comparison to 4.8 for [^18F]FEINT. […] The regional distribution of [^18F]FEBrNT and [^18F]FEINT were next studied in the brain of rhesus monkeys.

[10] = target: T8, SERT (Macaca mulatta, UniProt Q9MYX0); test: PET imaging and fluvoxamine displacement in rhesus monkey; type: in vivo; details: anesthetized rhesus monkey; thalamus, hypothalamus, pons / midbrain, brain stem
T8 construct: from tissue; host or cells: brain of a living rhesus monkey
Method: FIG. 3 is a graph showing time activity curves of [^18F]FEBrNT in a rhesus monkey in the thalamus (∘), hypothalamus (Δ), pons (⋄) and cerebellum (x) at 0-120 min i.v. post injection.

[11] = tested on: SERT sites; test: In vitro autoradiography, coronal brain slices; type: binding, pig tailed macaque
Method: [^18F]FEINT and [^18F]FEBrNT were incubated with pig tailed macaque coronal brain slices and the slices exposed to film for 30 min. […] Incubation of the brain slices with [^18F]FEINT (FIG. 1) and [^18F]FEBrNT and 10 μM citalopram yielded maximal inhibition (90%) of binding.
The radiosynthesis for [^18F] 10a, [^18F]12a, and [^18F]12b employed the tosylates 9a and 13a,b as the substrates respectively. The tosylate 9a was treated with NCA K[^18F]/K222 for 10 min in 1 mL of CH3CN at 85° C. followed by TFA/CH2Cl2 at 27° C. […] [^18F]FEBrNT and [^18F]FEClNT were synthesized from the tosylates 13a and 13b in a similar manner. [^18F]FEINT and [18F]FEBrNT were incubated with pig tailed macaque coronal brain slices.

[12] = target: T7, SERT; test: Ex vivo autoradiographic study in rats; design: species or system Sprague Dawley rat
Method: An initial ex vivo autoradiographic study was performed with either [^18F]FEINT or [^18F]FEBrNT in rats to measure brain penetration and regional distribution. A male Sprague Dawley rat was injected with one mCi of no-carrier added either […].

[13] = [3H]citalopram, transfected cell lines
[14] = Table 3, rat, 60 min after i.v., Fluvoxamine
[15] = Table 3, rat, 60 min after i.v., No block
[16] = Table 4, rat, 30 min after i.v.
[17] = Table 4, rat, 60 min after i.v.
[18] = Table 4, rat, 120 min after i.v.

T7 sequence (P31652 whole entry): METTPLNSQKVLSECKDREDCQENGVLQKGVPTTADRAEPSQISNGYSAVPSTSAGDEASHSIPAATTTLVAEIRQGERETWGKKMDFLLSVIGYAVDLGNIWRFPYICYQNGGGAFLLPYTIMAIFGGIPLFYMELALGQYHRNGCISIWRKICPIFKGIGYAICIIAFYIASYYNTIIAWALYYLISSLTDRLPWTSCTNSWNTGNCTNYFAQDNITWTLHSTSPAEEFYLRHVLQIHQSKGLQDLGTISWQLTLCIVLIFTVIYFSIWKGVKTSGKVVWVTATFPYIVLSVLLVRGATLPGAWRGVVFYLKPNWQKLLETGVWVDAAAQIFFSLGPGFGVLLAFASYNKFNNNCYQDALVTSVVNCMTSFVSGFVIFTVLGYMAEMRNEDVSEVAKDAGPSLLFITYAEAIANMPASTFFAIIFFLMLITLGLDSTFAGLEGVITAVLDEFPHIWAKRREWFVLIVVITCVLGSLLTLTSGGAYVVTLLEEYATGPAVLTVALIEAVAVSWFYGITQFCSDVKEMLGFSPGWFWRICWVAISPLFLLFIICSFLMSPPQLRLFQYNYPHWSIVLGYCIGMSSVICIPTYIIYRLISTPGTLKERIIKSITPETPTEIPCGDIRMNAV
T2 sequence (Q01959 whole entry): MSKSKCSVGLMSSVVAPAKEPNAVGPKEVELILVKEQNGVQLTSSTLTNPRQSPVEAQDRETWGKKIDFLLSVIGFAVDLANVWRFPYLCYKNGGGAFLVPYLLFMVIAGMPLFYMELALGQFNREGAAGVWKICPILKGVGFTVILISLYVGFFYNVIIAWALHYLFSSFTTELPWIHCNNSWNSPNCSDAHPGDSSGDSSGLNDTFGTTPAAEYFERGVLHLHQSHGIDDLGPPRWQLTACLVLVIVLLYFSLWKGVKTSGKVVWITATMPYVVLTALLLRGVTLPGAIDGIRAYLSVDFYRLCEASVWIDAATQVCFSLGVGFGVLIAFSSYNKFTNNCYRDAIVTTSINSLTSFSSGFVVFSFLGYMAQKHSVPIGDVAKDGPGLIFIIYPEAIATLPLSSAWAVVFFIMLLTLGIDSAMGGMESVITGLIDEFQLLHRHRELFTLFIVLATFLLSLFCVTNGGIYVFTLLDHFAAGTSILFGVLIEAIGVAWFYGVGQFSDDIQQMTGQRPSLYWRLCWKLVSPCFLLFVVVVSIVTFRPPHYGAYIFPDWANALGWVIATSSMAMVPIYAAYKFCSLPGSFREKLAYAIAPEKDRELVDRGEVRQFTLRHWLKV
T1 sequence (P23975 whole entry): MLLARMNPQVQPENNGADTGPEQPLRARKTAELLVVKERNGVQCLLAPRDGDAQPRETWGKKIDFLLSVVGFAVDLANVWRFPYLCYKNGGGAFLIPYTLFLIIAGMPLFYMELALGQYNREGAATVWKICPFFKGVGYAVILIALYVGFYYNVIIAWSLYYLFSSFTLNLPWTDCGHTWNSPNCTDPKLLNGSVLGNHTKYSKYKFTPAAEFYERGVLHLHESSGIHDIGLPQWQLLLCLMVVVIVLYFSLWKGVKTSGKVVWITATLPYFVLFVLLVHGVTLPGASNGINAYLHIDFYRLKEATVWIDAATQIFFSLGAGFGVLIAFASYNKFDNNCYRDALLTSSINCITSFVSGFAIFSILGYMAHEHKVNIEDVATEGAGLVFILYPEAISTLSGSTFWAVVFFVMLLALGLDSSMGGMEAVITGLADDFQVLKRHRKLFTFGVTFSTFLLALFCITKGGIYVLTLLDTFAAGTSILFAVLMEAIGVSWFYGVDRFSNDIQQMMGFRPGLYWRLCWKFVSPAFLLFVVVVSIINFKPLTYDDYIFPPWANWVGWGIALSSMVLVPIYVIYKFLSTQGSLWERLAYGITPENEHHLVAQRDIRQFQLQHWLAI
T4 sequence (P31645 whole entry): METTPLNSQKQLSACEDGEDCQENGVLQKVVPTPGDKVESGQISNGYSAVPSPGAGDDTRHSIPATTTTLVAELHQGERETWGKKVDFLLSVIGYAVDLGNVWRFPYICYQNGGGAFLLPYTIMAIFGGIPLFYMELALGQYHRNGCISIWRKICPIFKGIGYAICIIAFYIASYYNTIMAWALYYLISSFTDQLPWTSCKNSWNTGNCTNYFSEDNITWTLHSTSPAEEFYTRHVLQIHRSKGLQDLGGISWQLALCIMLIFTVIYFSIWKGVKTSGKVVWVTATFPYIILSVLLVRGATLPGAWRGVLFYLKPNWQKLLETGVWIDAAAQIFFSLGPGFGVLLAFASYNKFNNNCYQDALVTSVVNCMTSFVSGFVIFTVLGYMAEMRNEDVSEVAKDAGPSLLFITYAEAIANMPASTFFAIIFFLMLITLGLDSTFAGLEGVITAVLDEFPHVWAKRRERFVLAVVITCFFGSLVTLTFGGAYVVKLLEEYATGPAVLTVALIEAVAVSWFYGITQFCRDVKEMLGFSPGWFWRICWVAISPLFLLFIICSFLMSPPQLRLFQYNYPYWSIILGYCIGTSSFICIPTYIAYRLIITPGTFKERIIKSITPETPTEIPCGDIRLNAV
T3 sequence (P31645 whole entry): as above
dopamine transporter (DAT), sequence (P23977 whole entry): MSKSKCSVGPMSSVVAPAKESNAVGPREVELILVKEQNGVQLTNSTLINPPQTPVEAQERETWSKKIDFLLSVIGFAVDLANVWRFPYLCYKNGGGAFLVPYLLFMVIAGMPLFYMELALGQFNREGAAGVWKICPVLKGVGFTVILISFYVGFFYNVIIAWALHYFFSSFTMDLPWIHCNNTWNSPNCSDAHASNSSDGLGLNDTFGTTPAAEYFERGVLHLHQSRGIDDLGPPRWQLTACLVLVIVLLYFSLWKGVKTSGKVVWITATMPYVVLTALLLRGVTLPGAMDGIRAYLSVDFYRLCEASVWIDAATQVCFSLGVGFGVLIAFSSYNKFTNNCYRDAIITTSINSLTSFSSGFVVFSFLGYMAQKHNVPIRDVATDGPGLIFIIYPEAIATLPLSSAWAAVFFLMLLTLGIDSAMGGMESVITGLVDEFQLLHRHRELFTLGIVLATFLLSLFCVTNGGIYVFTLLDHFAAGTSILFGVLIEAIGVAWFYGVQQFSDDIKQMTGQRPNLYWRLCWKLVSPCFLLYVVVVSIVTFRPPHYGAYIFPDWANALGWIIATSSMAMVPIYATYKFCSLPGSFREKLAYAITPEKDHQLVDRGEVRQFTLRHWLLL
T6 sequence (Q01959 whole entry): as the sequence (Q01959 whole entry) above
T5 sequence (P23975 whole entry): as the sequence (P23975 whole entry) above
T8 sequence (Q9MYX0 whole entry): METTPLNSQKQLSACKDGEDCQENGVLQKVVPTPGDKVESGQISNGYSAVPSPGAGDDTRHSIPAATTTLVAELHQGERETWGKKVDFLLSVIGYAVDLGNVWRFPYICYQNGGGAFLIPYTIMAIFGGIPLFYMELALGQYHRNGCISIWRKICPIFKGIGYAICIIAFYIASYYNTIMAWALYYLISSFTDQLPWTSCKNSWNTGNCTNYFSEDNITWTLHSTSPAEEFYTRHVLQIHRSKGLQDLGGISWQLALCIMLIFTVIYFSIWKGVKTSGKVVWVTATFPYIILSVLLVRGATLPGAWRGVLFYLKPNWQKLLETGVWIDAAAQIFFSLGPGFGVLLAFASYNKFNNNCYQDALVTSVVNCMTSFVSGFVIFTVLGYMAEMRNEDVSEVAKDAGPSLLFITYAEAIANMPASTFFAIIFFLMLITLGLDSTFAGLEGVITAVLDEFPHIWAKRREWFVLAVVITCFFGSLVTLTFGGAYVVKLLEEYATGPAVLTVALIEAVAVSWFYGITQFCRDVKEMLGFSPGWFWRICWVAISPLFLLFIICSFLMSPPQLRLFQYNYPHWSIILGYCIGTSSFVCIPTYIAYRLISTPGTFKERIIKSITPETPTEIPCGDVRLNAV

SMILES: COC(=O)C1C(c2ccc(C=CI)cc2)CC2CCC1N2CCF (centres unmarked) [N-fluoroethyl ZIENT]
- Ki [1]: 21 nM
- Ki [2]: 27 nM
- Ki [3]: 1.28 nM

SMILES: COC(=O)C1C(c2ccc(C=CI)cc2)CC2CCC1N2C (centres unmarked) [N-methyl ZIENT]
- Ki [1]: 69 nM
- Ki [2]: 33 nM
- Ki [3]: 0.48 nM

SMILES: COC(=O)C1C2CCC(CC1c1ccc(I)cc1)N2 (stereo not drawn) [Nor-CIT, 2β-carbomethoxy-3β-(4-iodophenyl)nortropane, reference compound]
- Ki [4, 13]: 0.12 nM

SMILES: CC=Cc1ccc(C2CC3CCC(N3)C2C(=O)OC)cc1 (stereo not drawn) [Nor-β-CCPPT, 2β-carbomethoxy-3β-(4′cis-propenylphenyl)notropane]
- Selectivity for the SERT over the DAT [5]: 28 times
- IC50 [5]: 1.15 nM
- IC50 [6]: 32 nM

SMILES: C=C(C)c1ccc(C2CC3CCC(N3)C2C(=O)OC)cc1 (stereo not drawn) [Nor-β-CIPPT, 2β-carbomethoxy-3β-(4′-isopropenylphenyl)nortropane]
- Selectivity for the SERT over the DAT [5]: 38 times
- IC50 [5]: 0.6 nM

SMILES: COC(=O)C1C2CCC(CC1c1ccc(C=CI)cc1)N2 (centres unmarked) [ZIENT]
- Ki [4, 13]: 0.031 nM and 0.03 to 0.1 nM and 0.05 nM
- SERT Ki [4, 13]: subnanomolar
- DAT/SERT selectivity ([4]; ratio of Ki, DAT): 100 and 116
- NET/SERT selectivity ([4]; ratio of Ki, NET): 484
- Ki [1]: 64 nM
- Ki [7]: 24 nM
- Ki [2]: 16 nM
- Ki [3]: 0.25 nM
- Ki [8]: 3.47 nM

SMILES: COC(=O)C1C2CCC(CC1c1ccc(CC[18F])c(I)c1)N2 (centres unmarked) [[^18F]FEINT]
- Hypothal/(CB) ratio [9, 14]: 3.8
- Striatum/(CB) ratio [9, 14]: 2.0
- Tissue uptake, Blood [9, 14]: 0.07 (0.06-0.08) % dose/g
- Tissue uptake, Cerebellum [9, 14]: 0.1 (0.09-0.12) % dose/g
- Tissue uptake, Cortex [9, 14]: 0.15 (0.15-0.73) % dose/g
- Tissue uptake, Hypothalamus [9, 14]: 0.38 (0.28-0.45) % dose/g
- Tissue uptake, Olf. T. [9, 14]: 0.04 (0.19-0.55) % dose/g
- Tissue uptake, Prefrontal Cortex [9, 14]: 0.18 (0.06-0.41) % dose/g
- Tissue uptake, Striatum [9, 14]: 0.2 (0.16-1.40) % dose/g
- Hypothal/(CB) ratio [9, 15]: 4.8 and 4.6
- Striatum/(CB) ratio [9, 15]: 2.3
- Tissue uptake, Blood [9, 15]: 0.09 (0.09-0.99) % dose/g
- Tissue uptake, Cerebellum [9, 15]: 0.11 (0.11-0.12) % dose/g
- Tissue uptake, Cortex [9, 15]: 0.18 (0.15-0.19) % dose/g
- Tissue uptake, Hypothalamus [9, 15]: 0.5 (0.32-0.77) % dose/g
- Tissue uptake, Olf. T. [9, 15]: 1.46 (1.24-1.65) % dose/g
- Tissue uptake, Prefrontal Cortex [9, 15]: 0.25 (0.21-0.29) % dose/g
- Tissue uptake, Striatum [9, 15]: 0.25 (0.21-0.29) % dose/g
- Hypothal/(CB) ratio ([9]; Table 4, rat, 5 min after i.v.): 1.67
- Striatum/(CB) ratio ([9]; Table 4, rat, 5 min after i.v.): 1.45
- Tissue uptake, Blood ([9]; Table 4, rat, 5 min after i.v.): 0.19 (0.15-0.23)
- Tissue uptake, Bone ([9]; Table 4, rat, 5 min after i.v.): 0.27 (0.23-0.31)
- Tissue uptake, Brain ([9]; Table 4, rat, 5 min after i.v.): 0.65 (0.56-0.75)
- Tissue uptake, Cerebellum ([9]; Table 4, rat, 5 min after i.v.): 0.58 (0.51-0.65)
- Tissue uptake, Cortex ([9]; Table 4, rat, 5 min after i.v.): 0.76 (0.64-0.96)
- Tissue uptake, Hypothalamus ([9]; Table 4, rat, 5 min after i.v.): 0.97 (0.58-1.59)
- Tissue uptake, Pre-frontal Cortex ([9]; Table 4, rat, 5 min after i.v.): 0.75 (0.54-0.87)
- Tissue uptake, Striatum ([9]; Table 4, rat, 5 min after i.v.): 0.84 (0.59-1.20)
- Hypothal/(CB) ratio [9, 16]: 2.87
- Striatum/(CB) ratio [9, 16]: 1.70
- Tissue uptake, Blood [9, 16]: 0.14 (0.13-0.15)
- Tissue uptake, Bone [9, 16]: 0.70 (0.36-0.92)
- Tissue uptake, Brain [9, 16]: 0.35 (0.32-0.40)
- Tissue uptake, Cerebellum [9, 16]: 0.23 (0.22-0.23)
- Tissue uptake, Cortex [9, 16]: 0.36 (0.34-0.40)
- Tissue uptake, Hypothalamus [9, 16]: 0.66 (0.51-0.89)
- Tissue uptake, Pre-frontal Cortex [9, 16]: 0.37 (0.33-0.42)
- Tissue uptake, Striatum [9, 16]: 0.39 (0.29-0.55)
- Hypothal/(CB) ratio [9, 17]: 2.67
- Striatum/(CB) ratio [9, 17]: 2.44
- Tissue uptake, Blood [9, 17]: 0.10 (0.08-0.11)
- Tissue uptake, Bone [9, 17]: 0.95 (0.53-1.17)
- Tissue uptake, Brain [9, 17]: 0.14 (0.12-0.18)
- Tissue uptake, Cerebellum [9, 17]: 0.09 (0.07-0.11)
- Tissue uptake, Cortex [9, 17]: 0.13 (0.10-0.17)
- Tissue uptake, Hypothalamus [9, 17]: 0.24 (0.18-0.30)
- Tissue uptake, Pre-frontal Cortex [9, 17]: 0.14 (0.11-0.19)
- Tissue uptake, Striatum [9, 17]: 0.22 (0.17-0.31)
- Hypothal/(CB) ratio [9, 18]: 2.8 and 2.83
- Striatum/(CB) ratio [9, 18]: 1.7 and 1.67
- Tissue uptake, Blood [9, 18]: 0.63 (0.58-0.68)
- Tissue uptake, Bone [9, 18]: 1.26 (0.94-1.67)
- Tissue uptake, Brain [9, 18]: 0.89 (0.08-0.11)
- Tissue uptake, Cerebellum [9, 18]: 0.06 (0.05-0.08)
- Tissue uptake, Cortex [9, 18]: 0.09 (0.08-0.11)
- Tissue uptake, Hypothalamus [9, 18]: 0.17 (0.26-0.17)
- Tissue uptake, Pre-frontal Cortex [9, 18]: 0.10 (0.09-0.11)
- Tissue uptake, Striatum [9, 18]: 0.10 (0.09-0.13)
- Clearance from the hypothalamus ([9]; at 60 min compared to 5 min post injection): 75%
- Clearance from the hypothalamus ([9]; at 120 min compared to 5 min post injection): 85%
- Regional brain uptake by PET [10]: no visible uptake
- Localization of tracer binding in brain slices ([11]; slices exposed to film 30 min): localized to the thalamus, hypothalamus, caudate, amygloid complex, putamen and temporal cortex
- Inhibition of tracer binding to brain slices ([11]; with 10 μM citalopram): 90%
- Localization of tracer binding, ex vivo autoradiography ([12]; 1 mCi tracer): localized to the thalamus, hypothalamus, caudate, putamen and amygloid complex
- Effect of fluvoxamine block on tracer binding ([12]; fluvoxamine 5 mg/kg 20 min prior to tracer): maximal inhibition of binding
